Data reported in ChEMBL document CHEMBL4219208, “5'-Hydroxy-5'-homoaristeromycin: Synthesis and antiviral properties” (Bioorg Med Chem Lett, 2018).
Activity calls are given as the source filed them. The rule behind the calls is not given here.

Legend:
Hepatitis B virus = assay: Antiviral activity against Hepatitis B virus ayw infected in human HepG2.2.15 cells; format: functional, organism-based, Hepatitis B virus subtype ayw
Human orthopneumovirus = assay: Antiviral activity against Respiratory syncytial virus A infected in human Hep2 cells; format: functional, organism-based; settings: type A
[1] = Cytotoxicity against human Huh-Luc-Neo cells assessed as reduction in cell viability; format: cell-based
Vero = assay: Cytotoxicity against African green monkey Vero cells assessed as reduction in cell viability; format: cell-based; settings: chlorocebus sabaeus
Human alphaherpesvirus 2 = assay: Antiviral activity against Herpes simplex virus 2 G infected in HFF; format: functional, organism-based
MDCK = assay: Cytotoxicity against MDCK cells assessed as reduction in cell viability; format: cell-based, Canis lupus familiaris; settings: dog
[2] = Cytotoxicity against human HepG2.2.15 cells assessed as reduction in cell viability; format: cell-based, HepG2 2.2.15
Human alphaherpesvirus 1 = assay: Antiviral activity against Herpes simplex virus 1 E-377 infected in HFF; format: functional, organism-based
Hepatitis C virus = assay: Antiviral activity against Hepatitis C virus Con1 infected in human Huh-Luc-Neo cells; format: functional, organism-based; settings: Hepacivirus hominis; isolate Con1
Influenza A virus = assay: Antiviral activity against Influenza A virus (A/California/07/2009(H1N1)) infected in MDCK cells; format: functional, organism-based
dengue virus type 2 = assay: Antiviral activity against Dengue virus type 2 New guinea infected in African green monkey Vero 76 cells; format: functional, organism-based
West Nile virus = assay: Antiviral activity against West Nile virus KERN 515/WN02 infected in MDCK cells; format: functional, organism-based
Yellow fever virus = assay: Antiviral activity against Yellow fever virus 17D infected in African green monkey Vero cells; format: functional, organism-based
HEp-2 = assay: Cytotoxicity against human Hep2 cells assessed as reduction in cell viability; format: cell-based
Vaccinia virus = assay: Antiviral activity against Vaccinia virus Copenhagen infected in HFF cells; format: functional, organism-based; settings: Orthopoxvirus vaccinia
Vero 76 = assay: Cytotoxicity against African green monkey Vero 76 cells assessed as reduction in cell viability; format: cell-based; settings: chlorocebus sabaeus
LLC-MK2 = assay: Cytotoxicity against monkey LLC-MK2 clone 7.1 cells assessed as reduction in cell viability; format: cell-based, Macaca mulatta; settings: rhesus monkey
SARS-CoV = assay: Antiviral activity against SARS coronavirus Toronto-2 infected in African green monkey Vero E6 cells; format: functional, organism-based; settings: Severe acute respiratory syndrome-related coronavirus, Vero C1008
Poliovirus 1 = assay: Antiviral activity against Polio virus type 1 infected in monkey LLC-MK2 clone 7.1 cells; format: functional, organism-based
Rift Valley fever virus = assay: Antiviral activity against Rift Valley fever virus MP-12 infected in African green monkey Vero 76 cells; format: functional, organism-based
[3] = system: Venezuelan equine encephalitis virus; assay: Antiviral activity against Venezuelan equine encephalitis virus TC-83 infected in African green monkey Vero cells; format: functional, organism-based
Vero C1008 = assay: Cytotoxicity against African green monkey Vero E6 cells assessed as reduction in cell viability; format: cell-based; settings: chlorocebus sabaeus
[4] = Cytotoxicity against HFF assessed as reduction in cell viability; format: cell-based; settings: human, HFF cells
Human betaherpesvirus 5 = assay: Antiviral activity against Human cytomegalovirus AD169 infected in HFF; format: functional, organism-based; settings: Human betaherpesvirus 5, AD169, HFF

| Structure (SMILES) | EC50 (Hepatitis B virus) | Activity (Human orthopneumovirus) | Activity [1] | Activity (Vero) | Activity (Human alphaherpesvirus 2) | Activity (MDCK) | CC50 [2] | Activity (Human alphaherpesvirus 1) | Activity (Hepatitis C virus) | Activity (Influenza A virus) | Activity (dengue virus type 2) | Activity (West Nile virus) | Activity (HEp-2) | Activity (Vaccinia virus) | Activity (Vero 76) | Activity (LLC-MK2) | Activity (SARS-CoV) | Activity (Poliovirus 1) | Activity (Rift Valley fever virus) | Activity [3] | other results |
| --- | --- | --- | --- | --- | --- | --- | --- | --- | --- | --- | --- | --- | --- | --- | --- | --- | --- | --- | --- | --- | --- |
| Nc1ncnc2c1ncn2[C@@H]1C[C@H]([C@H](O)CO)[C@@H](O)[C@H]1O | 7.1 µM | inactive | Non-Toxic | Non-Toxic | inactive | Non-Toxic | > 100 µM | inactive | inactive | inactive | inactive | inactive | Non-Toxic | inactive | Non-Toxic | Non-Toxic | inactive | inactive | inactive | inactive | Activity (Yellow fever virus): inactive; Activity (Vero C1008): Non-Toxic |
| Nc1ncnc2c1ncn2[C@@H]1C[C@H]([C@@H](O)CO)[C@@H](O)[C@H]1O | 7.4 µM | inactive | Non-Toxic | Non-Toxic | inactive | Non-Toxic | > 100 µM | inactive | inactive | inactive | inactive | inactive | Non-Toxic | inactive | Non-Toxic | Non-Toxic | inactive | inactive | inactive | inactive | CC50 [4]: > 300 µM; EC50 (Human betaherpesvirus 5): 0.72 µM; Activity (Vero C1008): Non-Toxic |
